For one data set, the system named is dengue virus type 2. Kind of data set: Antiviral activity against eGPF-labeled DENV2 16681 infected in African green monkey Vero cells measured after 3 days by fluorescence microscopic analysis. It is filed as functional, cell-based.
Data set [1] can be described thus: Cytotoxicity against African green monkey Vero cells infected with eGPF-labeled DENV2 16681 assessed as reduction in cell viability measured after 3 days by ATPlite assay. It is filed as toxicity, cell-based. To be noted: chlorocebus sabaeus; for CC50: vero, 72 h; for CC50 at 72 h: Vero cells infected with eGFP-labeled DENV2 16681.
Data set [2] is described as follows: Selectivity index, ratio of CC50 for African green monkey Vero cells infected with eGPF-labeled DENV2 16681 to EC50 for DENV2 16681 expressing eGPF infected in African green monkey Vero cells.

A word on the EC50: it is the concentration that produces a half-maximal response. What is called CC50 is the concentration that lowers cell viability or growth by half. With `COc1cc(NC(C(=O)c2c[nH]c3cc(F)ccc23)c2ccc(Cl)cc2OC)cc(S(C)(=O)=O)c1` (single isomer, unassigned; enantiomer 1), it took 0.26 nM to reach a half-maximal effect in the data set with dengue virus type 2 (EC50). In addition, the CC50 in data set [1] is 4300 nM. Moreover, the “Ratio CC50/EC50” value in data set [2] is reported as 19700.
With `COc1cc(NC(C(=O)c2c[nH]c3c(C)c(F)ccc23)c2ccc(Cl)cc2OC)cc(S(C)(=O)=O)c1` (single isomer, unassigned; enantiomer 1), the midpoint of the response in the data set on dengue virus type 2, the EC50, lay at 0.26 nM. For the same compound, in data set [1], the CC50 at 72 h was 4800 nM. Besides, the “Ratio CC50/EC50” value in data set [2] is reported as 22000.
`COc1cc(NC(C(=O)c2c[nH]c3c(C)c(F)ccc23)c2ccc(Cl)cc2OC)cc(S(C)(=O)=O)c1` (single isomer, unassigned; enantiomer 2) returned a 50% effective concentration (EC50) with dengue virus type 2 of 26 nM. Moreover, the cytotoxic concentration (CC50) in data set [1] stood at 7400 nM. Also, the “Ratio CC50/EC50” value in data set [2] was determined as 285.
As for `COc1cc(NC(C(=O)c2c[nH]c3cc(F)ccc23)c2ccc(Cl)cc2OC)cc(S(C)(=O)=O)c1` (single isomer, unassigned; enantiomer 2), the EC50 with dengue virus type 2 was determined as 12 nM. The 50% cytotoxic concentration (CC50) in data set [1] stood at 6500 nM. For the same compound, in data set [2], the “Ratio CC50/EC50” value is on record as 530.
In turn, `COc1cc(NC(C(=O)c2c[nH]c3c(C)cc(OC(F)(F)F)cc23)c2ccc(Cl)cc2OC)cc(S(C)(=O)=O)c1` (stereo in doubt; 11A) showed an EC50 in the data set on dengue virus type 2 of 0.085 nM. Besides, in data set [1], the cytotoxic concentration (CC50) came out at 2600 nM. In addition, in data set [2], the “Ratio CC50/EC50” value is recorded as 30100.
For `COc1cc(NC(C(=O)c2c[nH]c3c(C)cc(OC(F)(F)F)cc23)c2ccc(Cl)cc2OC)cc(S(C)(=O)=O)c1` (single isomer, unassigned; enantiomer 2), the half-maximal effective concentration (EC50) with dengue virus type 2 was determined as 4.1 nM. Also, in data set [1], the half-maximal cytotoxic concentration (CC50) was 9200 nM. Moreover, in data set [2], the “Ratio CC50/EC50” value was 22200.
`COc1cc(NC(C(=O)c2c[nH]c3cc(OC)c(C)cc23)c2ccc(Cl)cc2OC)cc(S(C)(=O)=O)c1` (single isomer, unassigned; enantiomer 2) yielded an EC50 in the data set on dengue virus type 2 of 36 nM. Also, in data set [1], the CC50 was found to be 12000 nM. Further, the “Ratio CC50/EC50” value in data set [2] is listed as 341.
In turn, `COc1cc(NC(C(=O)c2c[nH]c3cc(F)c(C)cc23)c2ccc(Cl)cc2OC)cc(S(C)(=O)=O)c1` (single isomer, unassigned; enantiomer 1) gave an EC50 in the data set on dengue virus type 2 of 13 nM. Also, the CC50 in data set [1] came out at 6800 nM. Also, the “Ratio CC50/EC50” value in data set [2] stood at 538.
In the data set with dengue virus type 2, `COc1cc(NC(C(=O)c2c[nH]c3ccc(OC(F)(F)F)cc23)c2ccc(Cl)cc2OC)cc(S(C)(=O)=O)c1` (single isomer, unassigned; enantiomer 1) had a 50% effective concentration (EC50) of 0.067 nM. For the same compound, the cytotoxic concentration (CC50) in data set [1] came out at 2900 nM. Moreover, the “Ratio CC50/EC50” value in data set [2] is listed as above 37500.
The compound `COc1cc(NC(C(=O)c2c[nH]c3ccc(OC(F)(F)F)cc23)c2ccc(Cl)cc2OC)cc(S(C)(=O)=O)c1` (single isomer, unassigned; enantiomer 2) came in with an EC50 with dengue virus type 2 of 3.8 nM. Further, the CC50 in data set [1] stood at 6200 nM. Moreover, the “Ratio CC50/EC50” value in data set [2] is recorded as 1480.
For `COc1cc(NC(C(=O)c2c[nH]c3cc(F)ccc23)c2ccc(Cl)cc2OC)cc(S(C)(=O)=O)c1` (racemic), a half-maximal effect with dengue virus type 2 (EC50) was put at 0.52 nM. For the same compound, in data set [1], the cytotoxic concentration (CC50) at 72 h was determined as 5500 nM. Also, the “Ratio CC50/EC50” value in data set [2] was determined as 11500.
Take `COc1cc(NC(C(=O)c2c[nH]c3cc(OC)c(C)cc23)c2ccc(Cl)cc2OC)cc(S(C)(=O)=O)c1` (single isomer, unassigned): the response in the data set with dengue virus type 2 was half-maximal at 0.27 nM (EC50). Also, the CC50 in data set [1] was 4200 nM. The “Ratio CC50/EC50” value in data set [2] turned out to be 16900.
For the compound `COc1cc(NC(C(=O)c2c[nH]c3cc(F)c(C)cc23)c2ccc(Cl)cc2OC)cc(S(C)(=O)=O)c1` (single isomer, unassigned; enantiomer 2), the concentration giving a half-maximal response (EC50) in the data set with dengue virus type 2 amounted to 0.2 nM. Further, the CC50 in data set [1] came out at 3200 nM. Moreover, the “Ratio CC50/EC50” value in data set [2] came to 18500.

The values above are taken from ChEMBL document CHEMBL3870354, “Viral Replication Inhibitors May Treat the Dengue Virus Infections” (ACS Med Chem Lett, 2017).
